Results reported in US6737383B1, “Herbicidal oxadiazolidines” (priority 1999, dated 2004).

What was measured:
[1] = test system: bamyardgrass; assay: Test B flood test barnyardgrass; type: in vivo, Echinochloa crus-galli
Method in brief: (§1)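 Each value is a visual injury score relative to controls, with 10 meaning complete control and 0 no effect. Evaluation took place twelve to sixteen days after the 2-leaf-stage plants were treated and kept in the greenhouse.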

[2] = test system: rape; assay: Test B pre/postemergence rape; type: in vivo, Brassica napus
Method in brief: (§2)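 Response is a visual 0-to-10 score relative to untreated plants, where 0 means no effect and 10 means complete control, taken twelve to sixteen days after application. Treatments went onto soil at planting and onto foliage of 1- to 4-leaf plants, using a surfactant-containing non-phytotoxic solvent.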

[3] = test system: giant foxtail; assay: Test B pre/postemergence giant foxtail; type: in vivo, Setaria faberii
Method in brief: as §2

[4] = test system: corn; assay: Test B pre/postemergence corn; type: in vivo, Zea mays
Method in brief: as §2

[5] = test system: sugar beet; assay: Test B pre/postemergence sugar beet; type: in vivo, Beta vulgaris
Method in brief: as §2

[6] = test system: cocklebur; assay: Test B pre/postemergence cocklebur; type: in vivo, Xanthium strumarium
Method in brief: as §2

[7] = test system: velvetleaf; assay: Test B pre/postemergence velvetleaf; type: in vivo, Abutilon theophrasti; conditions: for Plant response rating, Velvetleaf: Postemergence
Method in brief: as §2

[8] = test system: bedstraw; assay: Test B pre/postemergence bedstraw; type: in vivo, Galium aparine
Method in brief: as §2

[9] = test system: smallflower flatsedge; assay: Test B flood test smallflower flatsedge; type: in vivo, Cyperus difformis
Method in brief: as §1

[10] = test system: blackgrass; assay: Test B pre/postemergence blackgrass; type: in vivo, Alopecurus myosuroides
Method in brief: as §2

[11] = test system: surinam grass; assay: Test B pre/postemergence surinam grass; type: in vivo, Brachiaria decumbens
Method in brief: as §2

[12] = test system: soybean; assay: Test B pre/postemergence soybean; type: in vivo, Glycine max; conditions: for Plant response rating, Soybean: Postemergence
Method in brief: as §2

[13] = test system: duck salad; assay: Test B flood test duck salad; type: in vivo, Heteranthera limosa
Method in brief: as §1

[14] = test system: pigweed; assay: Test B pre/postemergence pigweed; type: in vivo, Amaranthus retroflexus; conditions: for Plant response rating, Redroot pigweed: Postemergence
Method in brief: as §2

[15] = test system: morningglory; assay: Test B pre/postemergence morningglory; type: in vivo, Ipomoea hederacea
Method in brief: as §2

[16] = test system: purple nutsedge; assay: Test B pre/postemergence purple nutsedge; type: in vivo, Cyperus rotundus
Method in brief: as §2

[17] = Rate 62 g/ha, flood test species, Pre-emergence, visual evaluation after twelve to sixteen days
[18] = Rate 125 g/ha, under heading Pre-emergence, flood test species, visual evaluation after twelve to sixteen days
[19] = Rate 250 g/ha, Pre-emergence (flood test species), scale 0 to 10, 0 is no effect, 10 is complete control
[20] = Rate 500 g/ha, Pre-emergence section of Table B, 0 to 10 scale (0 no effect, 10 complete control)
[21] = Postemergence, Rate 62 g/ha, scale of 0 to 10, 0 is no effect, 10 is complete control
[22] = Postemergence, Rate 125 g/ha, scale 0 to 10, 0 is no effect, 10 is complete control
[23] = Postemergence, Rate 500 g/ha, scale of 0 to 10 where 0 is no effect and 10 is complete control
[24] = Preemergence, Rate 62 g/ha, scale 0 to 10 (0 no effect, 10 complete control)
[25] = Preemergence, Rate 125 g/ha, scale 0 to 10, 0 is no effect, 10 is complete control
[26] = Preemergence, Rate 500 g/ha, scale of 0 to 10 where 0 is no effect and 10 is complete control
[27] = Rate 250 g/ha, Postemergence, scale of 0 to 10 where 0 is no effect and 10 is complete control
[28] = Rate 500 g/ha, scale of 0 to 10 where 0 is no effect and 10 is complete control
[29] = Rate 250 g/ha, scale of 0 to 10 where 0 is no effect and 10 is complete control

CC(C)N(C(=O)n1oc(=O)n(C[Si](C)(C)C)c1=O)c1ccccc1 [Compound 577]
Plant response rating, Barnyardgrass (0 to 10 scale, 0 is no effect, 10 is complete control) [1, 17]: 0 | Barnyardgrass plant response rating (0 to 10 scale, 0 is no effect, 10 is complete control) [1, 18]: 0 | Barnyardgrass plant response rating [1, 19]: 0 | Barnyardgrass plant response rating [1, 20]: 0 | Rape plant response rating [2, 21]: 0 | Rape plant response rating [2, 22]: 0 | Plant response rating, Rape [2, 23]: 0 | Rape plant response rating [2, 24]: 0 | Rape plant response rating [2, 25]: 0 | Rape plant response rating (0 to 10 scale) ([2]; Preemergence, Rate 250 g/ha): 0 | Rape plant response rating [2, 26]: 0 | Plant response rating, Rape [2, 27]: 0 | Giant foxtail plant response rating [3, 21]: 0 | Giant foxtail plant response rating [3, 22]: 2 | Plant response rating, Giant foxtail [3, 23]: 8 | Giant foxtail plant response rating [3, 24]: 7 | Giant foxtail plant response rating [3, 25]: 8 | Giant foxtail plant response rating (0 to 10 scale) ([3]; Preemergence, Rate 250 g/ha): 9 | Giant foxtail plant response rating [3, 26]: 10 | Plant response rating, Giant foxtail [3, 27]: 2 | Corn plant response rating [4, 21]: 0 | Corn plant response rating [4, 22]: 0 | Plant response rating, Corn [4, 23]: 2 | Corn plant response rating [4, 24]: 2 | Corn plant response rating [4, 25]: 2 | Corn plant response rating (0 to 10 scale) ([4]; Preemergence, Rate 250 g/ha): 2 | Corn plant response rating [4, 26]: 3 | Plant response rating, Corn [4, 27]: 0 | Sugarbeets plant response rating [5, 24]: 0 | Sugarbeets plant response rating [5, 25]: 0 | Sugarbeets plant response rating (0 to 10 scale) ([5]; Preemergence, Rate 250 g/ha): 0 | Sugarbeets plant response rating [5, 26]: 0 | Plant response rating, Sugarbeets [5, 27]: 0 | Cocklebur plant response rating [6, 21]: 0 | Cocklebur plant response rating [6, 22]: 0 | Plant response rating, Cocklebur [6, 23]: 2 | Cocklebur plant response rating [6, 24]: 0 | Cocklebur plant response rating [6, 25]: 0 | Cocklebur plant response rating (0 to 10 scale) ([6]; Preemergence, Rate 250 g/ha): 0 | Cocklebur plant response rating [6, 26]: 0 | Plant response rating, Cocklebur [6, 27]: 0 | Plant response rating, Velvetleaf [7, 28]: 0 | Velvetleaf plant response rating [7, 24]: 4 | Velvetleaf plant response rating [7, 25]: 3 | Velvetleaf plant response rating (0 to 10 scale) ([7]; Preemergence, Rate 250 g/ha): 3 | Velvetleaf plant response rating [7, 26]: 4 | Plant response rating, Velvetleaf [7, 29]: 0 | Bedstraw plant response rating [8, 22]: 4 | Bedstraw plant response rating [8, 24]: 0 | Bedstraw plant response rating [8, 25]: 0 | Bedstraw plant response rating (0 to 10 scale) ([8]; Preemergence, Rate 250 g/ha): 0 | Bedstraw plant response rating [8, 26]: 0 | Plant response rating, S. Flatsedge (0 to 10 scale, 0 is no effect, 10 is complete control) [9, 17]: 0 | S. Flatsedge plant response rating (0 to 10 scale, 0 is no effect, 10 is complete control) [9, 18]: 0 | S. Flatsedge plant response rating [9, 19]: 0 | S. Flatsedge plant response rating [9, 20]: 0 | Blackgrass plant response rating [10, 21]: 0 | Blackgrass plant response rating [10, 22]: 0 | Plant response rating, Blackgrass [10, 23]: 0 | Blackgrass plant response rating [10, 24]: 0 | Blackgrass plant response rating [10, 25]: 0 | Blackgrass plant response rating (0 to 10 scale) ([10]; Preemergence, Rate 250 g/ha): 3 | Blackgrass plant response rating [10, 26]: 6 | Plant response rating, Blackgrass [10, 27]: 0 | B. signalgrass plant response rating [11, 21]: 0 | B. signalgrass plant response rating [11, 22]: 0 | Plant response rating, B. signalgrass [11, 23]: 3 | B. signalgrass plant response rating [11, 24]: 0 | B. signalgrass plant response rating [11, 25]: 3 | B. signalgrass plant response rating (0 to 10 scale, 0 is no effect, 10 is complete control) ([11]; Preemergence, Rate 250 g/ha): 4 | B. signalgrass plant response rating [11, 26]: 7 | Plant response rating, B. signalgrass [11, 27]: 0 | Plant response rating, Soybean [12, 28]: 5 | Soybean plant response rating [12, 24]: 0 | Soybean plant response rating [12, 25]: 0 | Soybean plant response rating (0 to 10 scale) ([12]; Preemergence, Rate 250 g/ha): 0 | Soybean plant response rating [12, 26]: 0 | Plant response rating, Soybean [12, 29]: 3 | Plant response rating, Ducksalad (0 to 10 scale, 0 is no effect, 10 is complete control) [13, 17]: 0 | Ducksalad plant response rating (0 to 10 scale, 0 is no effect, 10 is complete control) [13, 18]: 0 | Ducksalad plant response rating [13, 19]: 0 | Ducksalad plant response rating [13, 20]: 0 | Plant response rating, Redroot pigweed [14, 28]: 0 | Redroot pigweed plant response rating [14, 24]: 0 | Redroot pigweed plant response rating [14, 25]: 0 | Redroot pigweed plant response rating (0 to 10 scale) ([14]; Preemergence, Rate 250 g/ha): 0 | Redroot pigweed plant response rating [14, 26]: 0 | Plant response rating, Redroot pigweed [14, 29]: 0 | Morningglory plant response rating [15, 21]: 6 | Morningglory plant response rating [15, 22]: 9 | Plant response rating, Morningglory [15, 23]: 10 | Morningglory plant response rating [15, 24]: 0 | Morningglory plant response rating [15, 25]: 0 | Morningglory plant response rating (0 to 10 scale) ([15]; Preemergence, Rate 250 g/ha): 8 | Morningglory plant response rating [15, 26]: 9 | Plant response rating, Morningglory [15, 27]: 10 | Nutsedge plant response rating [16, 21]: 0 | Plant response rating, Nutsedge [16, 23]: 0 | Nutsedge plant response rating [16, 24]: 0 | Nutsedge plant response rating [16, 25]: 0 | Nutsedge plant response rating (0 to 10 scale) ([16]; Preemergence, Rate 250 g/ha): 0 | Nutsedge plant response rating [16, 26]: 0
